Source: PMC4873338 (Neuron, 2016)
Like-named read-outs stand apart in the source and are kept apart here.

Legend:
[1] = system: dopamine receptor(s) (DA-R) in s-LNv; settings: for Max Ampl DA ZT4 / Max Ampl DA ZT22 / EC50: Pdf > Epac50A
[2] = system: D1-like dopamine receptors in l-LNv; settings: via one or more D1-like dopamine receptors, ref Shang et al. 2011, Duvall and Taghert, 2012; cited from earlier work
[3] = system: Drosophila D1-like receptors expressed in hEK-293 cells; settings: hEK-293 cells expressing Drosophila D1-like receptor
[4] = system: dopamine receptor(s) (DA-R) in s-LNv; settings: 2012, cited from earlier work
[5] = system: D1-like dopamine receptors in l-LNv; assay: EPAC-FRET cAMP imaging of l-LNv response to dopamine; assay type: cell-based, Drosophila

NCCc1ccc(O)c(O)c1 [DA, dopamine]
rhythm of responsiveness to DA ([1]; 3 × 10^−05 M DA, s-LNv, N=36 brains, 124 ROIs): peak phase in synchrony with the peak phase of PDF responsiveness, just after lights-on
Max Ampl DA ZT4 ([1]; s-LNv, LD 12:12, ZT4): 15.3 ± 1.2
Max Ampl DA ZT22 ([1]; s-LNv, LD 12:12, ZT22): 14.7 ± 2.8
Max Ampl DA ZT4 ([1]; rala[CA], s-LNv, LD 12:12, ZT4): 14.0 ± 1.4
Max Ampl DA ZT22 ([1]; rala[CA], s-LNv, LD 12:12, ZT22): 13.6 ± 2.0
Max Ampl DA ZT4 ([1]; rala[DN], s-LNv, LD 12:12, ZT4): 13.6 ± 1.5
Max Ampl DA ZT22 ([1]; rala[DN], s-LNv, LD 12:12, ZT22): 14.4 ± 1.9
EC50 ([1]; read-out: DA EC50 ZT4, rala[CA], s-LNv, LD 12:12, ZT4): 5.7 µM
EC50 ([1]; read-out: DA EC50 ZT4, rala[DN], s-LNv, LD 12:12, ZT4): 29 µM
EC50 ([1]; read-out: DA EC50 ZT22, rala[CA], s-LNv, LD 12:12, ZT22): 6.4 µM
DA responsiveness after RNAi targeting of AC13E and of ACX-A ([1]; s-LNv, Suppl. Figure 2-top): partially reduced DA responsiveness
attenuation of FRET response after peak ([1]; sustained exposure to DA): rapidly attenuated
time to peak of FRET response ([1]; sustained exposure to DA, relation: within): 1 to 2 min
cAMP increase in vivo [2]: generates cAMP increases in vivo
β-ARR2-GFP translocation [3]: potently recruited β-ARR2-GFP translocation
DA responsiveness on over-expression of AC3 ([4]; s-LNv, ref Duvall and Taghert): no effect on DA responsiveness
cAMP increase in vivo ([4]; small LNv, ref Shang et al. 2011, Duvall and Taghert): generates cAMP increases in vivo
FRET responses to DA over the 24-hr period ([5]; 3 × 10^−05 M DA, N=33 brains, 178 ROIs, P=0.574): did not significantly vary over the 24-hr time period tested
Max Ampl DA ZT4 ([5]; Pdf > Epac50A, LD 12:12, ZT4): 15.3 ± 1.3
Max Ampl DA ZT22 ([5]; Pdf > Epac50A, LD 12:12, ZT22): 16.0 ± 1.3
